This note sets out measurements from PubChem BioAssay (NCI).

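Method: 48-hour compound exposure of cells in 96-well plates, five concentrations, linear interpolation of endpoints. GI50: concentration for 50% inhibition of growth. TGI denotes the concentration required for complete inhibition of growth.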

Some test systems named below: 786-0 renal; ACHN renal; BT-549 breast; HS 578T breast; LOX IMVI melanoma; MDA-MB-231 breast; NCI/ADR-RES ovarian; SF-268 CNS; SR leukemia; T-47D breast.
What all share (experiment): NCI-60 cell line screen, 48 h

In the case of `Cc1cc2c(C(=O)NC[C@H](C)c3ccccc3)c(O)c(O)cc2c(O)c1-c1c(C)cc2c(C(=O)NC[C@H](C)c3ccccc3)c(O)c(O)cc2c1O`, the GI50 is 0.368 µM in the test on 786-0 renal; 0.296 µM in the test with ACHN renal; 0.0437 µM in the test on BT-549 breast; 0.274 µM in the test on HS 578T breast; 0.539 µM in the test on LOX IMVI melanoma; 0.677 µM with MDA-MB-231 breast. In addition, the GI50 in the test with NCI/ADR-RES ovarian was 0.252 µM; in the test with SF-268 CNS, 0.234 µM; in the test with SR leukemia, 0.376 µM; with T-47D breast, 0.284 µM. Also, the TGI with 786-0 renal stood at 1.8 µM; in the test on ACHN renal, 3.83 µM; with BT-549 breast, 2.03 µM; in the test on HS 578T breast, 2.56 µM; with LOX IMVI melanoma, 4.89 µM; in the test on MDA-MB-231 breast, 6.53 µM. For the same compound, the TGI was 4.3 µM with NCI/ADR-RES ovarian, 3.7 µM in the test on SF-268 CNS, 4.51 µM in the test with SR leukemia and 1.34 µM with T-47D breast.

On to `CCc1nc(N)nc(N)c1-c1ccc(Cl)c([N+](=O)[O-])c1`, for which the TGI in the test with 786-0 renal, with ACHN renal, in the test on BT-549 breast, with HS 578T breast, with LOX IMVI melanoma and in the test with MDA-MB-231 breast was above 100 µM in each case. In addition, the TGI was above 100 µM with NCI/ADR-RES ovarian, above 100 µM in the test with SF-268 CNS, above 26.5 µM in the test on SR leukemia and above 100 µM in the test on T-47D breast.

Turning to `O=C(O)CSc1n[nH]c(=O)[nH]c1=O`, the TGI with 786-0 renal, in the test on ACHN renal, in the test with BT-549 breast, in the test with HS 578T breast, with LOX IMVI melanoma and in the test with MDA-MB-231 breast was above 100 µM throughout. For the same compound, the TGI with NCI/ADR-RES ovarian, in the test with SF-268 CNS, with SR leukemia and in the test with T-47D breast was above 100 µM throughout.

As for `COc1ccc2c(c1)C(=O)c1c-2n(CCCN(C)C)c(=O)c2ccccc12`, the GI50 is 0.176 µM in the test with 786-0 renal; 0.116 µM in the test with ACHN renal; 0.521 µM in the test on BT-549 breast; 0.624 µM in the test on HS 578T breast; 0.162 µM in the test with LOX IMVI melanoma; 1.86 µM with MDA-MB-231 breast. The GI50 was 0.349 µM in the test with NCI/ADR-RES ovarian, 0.258 µM with SF-268 CNS and 0.309 µM with T-47D breast. Moreover, the TGI with 786-0 renal turned out to be 2.3 µM; in the test with ACHN renal it was 0.503 µM; with BT-549 breast, 3.11 µM; with HS 578T breast, 5.99 µM; with LOX IMVI melanoma it was 1.01 µM; in the test on MDA-MB-231 breast, 12.9 µM. For the same compound, the TGI in the test on NCI/ADR-RES ovarian was determined as 9.66 µM; in the test with SF-268 CNS, 2.84 µM; with SR leukemia, 11.3 µM; with T-47D breast, 3.56 µM.

Regarding `O=c1oc2ccc(I)cc2c(=O)n1-c1ccc(Br)cc1F`, the GI50 was 2.42 µM in the test with 786-0 renal; 0.751 µM in the test with ACHN renal; 0.525 µM with BT-549 breast; 0.345 µM in the test with HS 578T breast; 0.626 µM in the test on LOX IMVI melanoma; 0.457 µM in the test with MDA-MB-231 breast. The GI50 with NCI/ADR-RES ovarian is 0.798 µM; in the test with SF-268 CNS it was 0.673 µM; in the test on SR leukemia it was 0.605 µM; with T-47D breast, 0.856 µM. In addition, the TGI in the test with 786-0 renal came out at 7.12 µM; in the test with ACHN renal it was 10.7 µM; in the test with BT-549 breast, 2.67 µM; in the test with HS 578T breast, 3.14 µM; in the test with LOX IMVI melanoma it was 5.86 µM; in the test on MDA-MB-231 breast it was 3.79 µM. Further, the TGI in the test on NCI/ADR-RES ovarian was 6.09 µM; with SF-268 CNS, 8.52 µM; in the test on SR leukemia, above 34.1 µM; in the test on T-47D breast it was 6.7 µM.

For the compound `CNC(=O)c1c(C)oc2cc(Oc3ncnc4cc(OC)c(OC)cc34)ccc12`, the GI50 with 786-0 renal is above 100 µM; in the test on ACHN renal it was above 100 µM; in the test with BT-549 breast, above 100 µM; in the test on HS 578T breast, 4.18 µM; in the test with LOX IMVI melanoma it was above 100 µM; in the test with MDA-MB-231 breast, above 100 µM. The GI50 in the test on NCI/ADR-RES ovarian, in the test with SF-268 CNS, in the test on SR leukemia and in the test with T-47D breast was above 100 µM each time. Further, the TGI with 786-0 renal, in the test with ACHN renal, in the test with BT-549 breast, with HS 578T breast, in the test on LOX IMVI melanoma and in the test on MDA-MB-231 breast was above 100 µM each time. The TGI with NCI/ADR-RES ovarian, with SF-268 CNS, with SR leukemia and in the test with T-47D breast was above 100 µM throughout.

`COc1ccc(C2(Cl)c3ccccc3N(c3ccccc3)c3ccccc32)cc1`: the GI50 in the test with 786-0 renal is 0.618 µM; in the test on ACHN renal it was 0.598 µM; in the test with BT-549 breast it was 0.211 µM; with HS 578T breast it was 0.407 µM; with LOX IMVI melanoma it was 0.282 µM; with MDA-MB-231 breast, 0.759 µM. For the same compound, the GI50 is 2.05 µM in the test on NCI/ADR-RES ovarian, 0.758 µM in the test on SF-268 CNS, 0.357 µM with SR leukemia and 0.288 µM in the test on T-47D breast. Further, the TGI with 786-0 renal came to 2.06 µM; in the test with ACHN renal, 10.1 µM; in the test on BT-549 breast, 1.42 µM; with HS 578T breast it was 17.2 µM; with LOX IMVI melanoma, 1.32 µM; in the test with MDA-MB-231 breast, 2.54 µM. Also, the TGI is 10.5 µM in the test on NCI/ADR-RES ovarian, 2.88 µM in the test with SF-268 CNS, 3.28 µM with SR leukemia and 5.38 µM in the test on T-47D breast.

`O=C1Nc2c(ccc(Cl)c2Cl)/C1=C/c1cc(Br)c(O)c(Br)c1`: the GI50 in the test on 786-0 renal was 6.62 µM; in the test on ACHN renal, 9.86 µM; in the test on BT-549 breast, 2.92 µM; in the test on HS 578T breast it was 4.32 µM; in the test on LOX IMVI melanoma, 6.94 µM; in the test on MDA-MB-231 breast, 6.81 µM. Also, the GI50 with NCI/ADR-RES ovarian is 2.95 µM; with SF-268 CNS, 14.6 µM; in the test on SR leukemia, 2.77 µM; with T-47D breast it was 2.99 µM. Besides, the TGI with 786-0 renal was 78.7 µM; in the test with ACHN renal it was above 86.4 µM; in the test with BT-549 breast, 17.5 µM; in the test with HS 578T breast it was 46.4 µM; with LOX IMVI melanoma, 63.6 µM; in the test with MDA-MB-231 breast it was 49.6 µM. The TGI is above 24.1 µM in the test with NCI/ADR-RES ovarian, above 100 µM in the test with SF-268 CNS, above 39.3 µM in the test with SR leukemia and 12.3 µM with T-47D breast.

As to `Oc1ccc(C=Nc2ccccc2O)cc1`, the TGI in the test on 786-0 renal is 67.4 µM; with ACHN renal, above 100 µM; in the test with BT-549 breast, above 100 µM; with HS 578T breast, above 100 µM; in the test on LOX IMVI melanoma, above 100 µM; in the test on MDA-MB-231 breast it was above 100 µM. For the same compound, the TGI with NCI/ADR-RES ovarian, in the test on SF-268 CNS, in the test with SR leukemia and in the test on T-47D breast was above 100 µM in each case.
